In PubChem BioAssay (NCI):
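GI50: concentration for 50% inhibition of growth. TGI marks complete inhibition of growth.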

Columns and labels:
Assay in all cases: NCI anticancer screen, dose series, 384-well format
786-0 renal = system: 786-0 renal
A498 renal = system: A498 renal
A549 NSCLC = system: A549 NSCLC
ACHN renal = system: ACHN renal
BT-549 breast = system: BT-549 breast
CAKI-1 renal = system: CAKI-1 renal
CCRF-CEM leukemia = system: CCRF-CEM leukemia
COLO 205 colon = system: COLO 205 colon
DU-145 prostate = system: DU-145 prostate
EKVX NSCLC = system: EKVX NSCLC
HCT-116 colon = system: HCT-116 colon
HL-60(TB) leukemia = system: HL-60(TB) leukemia
HOP-62 NSCLC = system: HOP-62 NSCLC
HOP-92 NSCLC = system: HOP-92 NSCLC
HT29 colon = system: HT29 colon
IGROV1 ovarian = system: IGROV1 ovarian
K-562 leukemia = system: K-562 leukemia
KM12 colon = system: KM12 colon
LOX IMVI melanoma = system: LOX IMVI melanoma
MALME-3M melanoma = system: MALME-3M melanoma
MCF7 breast = system: MCF7 breast
MDA-MB-231 breast = system: MDA-MB-231 breast
MDA-MB-435 melanoma = system: MDA-MB-435 melanoma
MDA-MB-468 breast = system: MDA-MB-468 breast
MOLT-4 leukemia = system: MOLT-4 leukemia
NCI-H226 lung = system: NCI-H226 lung
NCI-H322M lung = system: NCI-H322M lung
NCI-H460 NSCLC = system: NCI-H460 NSCLC
NCI-H522 lung = system: NCI-H522 lung
NCI/ADR-RES ovarian = system: NCI/ADR-RES ovarian
OVCAR-3 ovarian = system: OVCAR-3 ovarian
RPMI-8226 leukemia = system: RPMI-8226 leukemia
RXF 393 renal = system: RXF 393 renal
SF-295 CNS = system: SF-295 CNS
SF-539 CNS = system: SF-539 CNS
SK-MEL-2 melanoma = system: SK-MEL-2 melanoma
SK-MEL-28 melanoma = system: SK-MEL-28 melanoma
SK-MEL-5 melanoma = system: SK-MEL-5 melanoma
SK-OV-3 ovarian = system: SK-OV-3 ovarian
SNB-75 CNS = system: SNB-75 CNS
SR leukemia = system: SR leukemia
SW-620 colon = system: SW-620 colon
T-47D breast = system: T-47D breast
TK-10 renal = system: TK-10 renal
U251 glioblastoma = system: U251 glioblastoma
UACC-257 melanoma = system: UACC-257 melanoma
UACC-62 melanoma = system: UACC-62 melanoma

**Q.** Which GI50 ([…]-0 renal) does the source give for `CC(C)(O)c1cc(Nc2cc(Oc3cn(C4CC4)nc3C3CCOCC3)ccn2)ccn1` here?
**A.** The GI50 was greater than 72.6 µM.

**Q.** What about the TGI (786-0 renal) of the same compound?
**A.** Its TGI is greater than 100 µM.

**Q.** What about the GI50 (A498 renal) of the same compound?
**A.** The GI50 was 66.8 µM.

**Q.** What about the TGI (A498 renal) of the same compound?
**A.** The TGI was greater than 100 µM.

**Q.** What about the GI50 (A549 NSCLC) of the same compound?
**A.** Its GI50 is 89.6 µM.

**Q.** And the TGI (A549 NSCLC)?
**A.** The TGI was greater than 100 µM.

**Q.** And the GI50 (ACHN renal)?
**A.** The GI50 was greater than 100 µM.

**Q.** What about the TGI (ACHN renal) of the same compound?
**A.** Its TGI is greater than 100 µM.

**Q.** And the GI50 (BT-549 breast)?
**A.** The GI50 was 38.7 µM.

**Q.** And the TGI (BT-549 breast)?
**A.** Its TGI is greater than 100 µM.

**Q.** What about the GI50 (CAKI-1 renal) of the same compound?
**A.** Its GI50 is 68.1 µM.

**Q.** And the TGI (CAKI-1 renal)?
**A.** The TGI was greater than 100 µM.

**Q.** And the GI50 (CCRF-CEM leukemia)?
**A.** The GI50 was 46.7 µM.

**Q.** What about the TGI (CCRF-CEM leukemia) of the same compound?
**A.** Its TGI is greater than 100 µM.

**Q.** What about the GI50 (COLO 205 colon) of the same compound?
**A.** The GI50 was 63.2 µM.

**Q.** And the TGI (COLO 205 colon)?
**A.** The TGI was greater than 100 µM.

**Q.** What about the GI50 (DU-145 prostate) of the same compound?
**A.** Its GI50 is greater than 100 µM.

**Q.** What about the TGI (DU-145 prostate) of the same compound?
**A.** Its TGI is greater than 100 µM.

**Q.** And the GI50 (EKVX NSCLC)?
**A.** The GI50 was 51.6 µM.

**Q.** And the TGI (EKVX NSCLC)?
**A.** The TGI was greater than 100 µM.

**Q.** What about the GI50 (HCT-116 colon) of the same compound?
**A.** The GI50 was 46.6 µM.

**Q.** And the TGI (HCT-116 colon)?
**A.** Its TGI is greater than 100 µM.

**Q.** And the GI50 (HL-60(TB) leukemia)?
**A.** Its GI50 is 15.5 µM.

**Q.** What about the TGI (HL-60(TB) leukemia) of the same compound?
**A.** The TGI was 29.1 µM.

**Q.** And the GI50 (HOP-62 NSCLC)?
**A.** The GI50 was greater than 100 µM.

**Q.** What about the TGI (HOP-62 NSCLC) of the same compound?
**A.** The TGI was greater than 100 µM.

**Q.** And the GI50 (HOP-92 NSCLC)?
**A.** The GI50 was 50.7 µM.

**Q.** And the TGI (HOP-92 NSCLC)?
**A.** The TGI was greater than 100 µM.

**Q.** What about the GI50 (HT29 colon) of the same compound?
**A.** The GI50 was 54.1 µM.

**Q.** And the TGI (HT29 colon)?
**A.** Its TGI is greater than 100 µM.

**Q.** And the GI50 (IGROV1 ovarian)?
**A.** The GI50 was greater than 100 µM.

**Q.** And the TGI (IGROV1 ovarian)?
**A.** The TGI was greater than 100 µM.

**Q.** And the GI50 (K-562 leukemia)?
**A.** Its GI50 is 26.3 µM.

**Q.** And the TGI (K-562 leukemia)?
**A.** The TGI was greater than 100 µM.

**Q.** What about the GI50 (KM12 colon) of the same compound?
**A.** The GI50 was 97.1 µM.

**Q.** What about the TGI (KM12 colon) of the same compound?
**A.** Its TGI is greater than 100 µM.

**Q.** And the GI50 (LOX IMVI melanoma)?
**A.** Its GI50 is 24.9 µM.

**Q.** And the TGI (LOX IMVI melanoma)?
**A.** The TGI was 84.9 µM.

**Q.** And the GI50 (MALME-3M melanoma)?
**A.** Its GI50 is greater than 77.1 µM.

**Q.** And the TGI (MALME-3M melanoma)?
**A.** The TGI was greater than 100 µM.

**Q.** What about the GI50 (MCF7 breast) of the same compound?
**A.** Its GI50 is 29.9 µM.

**Q.** And the TGI (MCF7 breast)?
**A.** Its TGI is greater than 100 µM.

**Q.** And the GI50 (MDA-MB-231 breast)?
**A.** The GI50 was greater than 89 µM.

**Q.** What about the TGI (MDA-MB-231 breast) of the same compound?
**A.** Its TGI is greater than 100 µM.

**Q.** And the GI50 (MDA-MB-435 melanoma)?
**A.** The GI50 was greater than 100 µM.

**Q.** What about the TGI (MDA-MB-435 melanoma) of the same compound?
**A.** The TGI was greater than 100 µM.

**Q.** What about the GI50 (MDA-MB-468 breast) of the same compound?
**A.** The GI50 was 33.8 µM.

**Q.** And the TGI (MDA-MB-468 breast)?
**A.** The TGI was greater than 83.5 µM.

**Q.** And the GI50 (MOLT-4 leukemia)?
**A.** The GI50 was 42.7 µM.

**Q.** And the TGI (MOLT-4 leukemia)?
**A.** Its TGI is greater than 100 µM.

**Q.** What about the GI50 (NCI-H226 lung) of the same compound?
**A.** The GI50 was greater than 93.3 µM.

**Q.** What about the TGI (NCI-H226 lung) of the same compound?
**A.** The TGI was greater than 100 µM.

**Q.** What about the GI50 (NCI-H322M lung) of the same compound?
**A.** The GI50 was greater than 100 µM.

**Q.** And the TGI (NCI-H322M lung)?
**A.** Its TGI is greater than 100 µM.

**Q.** And the GI50 (NCI-H460 NSCLC)?
**A.** The GI50 was 38.8 µM.

**Q.** What about the TGI (NCI-H460 NSCLC) of the same compound?
**A.** Its TGI is greater than 100 µM.

**Q.** What about the GI50 (NCI-H522 lung) of the same compound?
**A.** Its GI50 is greater than 68.6 µM.

**Q.** What about the TGI (NCI-H522 lung) of the same compound?
**A.** Its TGI is greater than 100 µM.

**Q.** And the GI50 (NCI/ADR-RES ovarian)?
**A.** Its GI50 is greater than 100 µM.

**Q.** What about the TGI (NCI/ADR-RES ovarian) of the same compound?
**A.** The TGI was greater than 100 µM.

**Q.** What about the GI50 (OVCAR-3 ovarian) of the same compound?
**A.** Its GI50 is 52.8 µM.

**Q.** And the TGI (OVCAR-3 ovarian)?
**A.** Its TGI is greater than 100 µM.

**Q.** What about the GI50 (RPMI-8226 leukemia) of the same compound?
**A.** Its GI50 is 45.5 µM.

**Q.** What about the TGI (RPMI-8226 leukemia) of the same compound?
**A.** Its TGI is greater than 91 µM.

**Q.** And the GI50 (RXF 393 renal)?
**A.** Its GI50 is 43.5 µM.

**Q.** What about the TGI (RXF 393 renal) of the same compound?
**A.** Its TGI is greater than 100 µM.

**Q.** What about the GI50 (SF-295 CNS) of the same compound?
**A.** Its GI50 is greater than 90 µM.

**Q.** What about the TGI (SF-295 CNS) of the same compound?
**A.** The TGI was greater than 100 µM.

**Q.** And the GI50 (SF-539 CNS)?
**A.** The GI50 was greater than 100 µM.

**Q.** What about the TGI (SF-539 CNS) of the same compound?
**A.** The TGI was greater than 100 µM.

**Q.** And the GI50 (SK-MEL-2 melanoma)?
**A.** Its GI50 is greater than 100 µM.

**Q.** And the TGI (SK-MEL-2 melanoma)?
**A.** Its TGI is greater than 100 µM.

**Q.** And the GI50 (SK-MEL-28 melanoma)?
**A.** The GI50 was greater than 80.5 µM.

**Q.** What about the TGI (SK-MEL-28 melanoma) of the same compound?
**A.** Its TGI is greater than 100 µM.

**Q.** And the GI50 (SK-MEL-5 melanoma)?
**A.** Its GI50 is 16.4 µM.

**Q.** What about the TGI (SK-MEL-5 melanoma) of the same compound?
**A.** The TGI was greater than 100 µM.

**Q.** And the GI50 (SK-OV-3 ovarian)?
**A.** Its GI50 is 85.1 µM.

**Q.** What about the TGI (SK-OV-3 ovarian) of the same compound?
**A.** The TGI was greater than 100 µM.

**Q.** What about the GI50 (SNB-75 CNS) of the same compound?
**A.** Its GI50 is greater than 91.6 µM.

**Q.** What about the TGI (SNB-75 CNS) of the same compound?
**A.** Its TGI is greater than 100 µM.

**Q.** What about the GI50 (SR leukemia) of the same compound?
**A.** Its GI50 is 24.8 µM.

**Q.** What about the TGI (SR leukemia) of the same compound?
**A.** Its TGI is greater than 75.9 µM.

**Q.** And the GI50 (SW-620 colon)?
**A.** The GI50 was greater than 91.7 µM.

**Q.** What about the TGI (SW-620 colon) of the same compound?
**A.** Its TGI is greater than 100 µM.

**Q.** And the GI50 (T-47D breast)?
**A.** The GI50 was 32.6 µM.

**Q.** What about the TGI (T-47D breast) of the same compound?
**A.** Its TGI is greater than 100 µM.

**Q.** And the GI50 (TK-10 renal)?
**A.** The GI50 was 67.2 µM.

**Q.** What about the TGI (TK-10 renal) of the same compound?
**A.** Its TGI is greater than 100 µM.

**Q.** What about the GI50 (U251 glioblastoma) of the same compound?
**A.** The GI50 was greater than 100 µM.

**Q.** What about the TGI (U251 glioblastoma) of the same compound?
**A.** The TGI was greater than 100 µM.

**Q.** What about the GI50 (UACC-257 melanoma) of the same compound?
**A.** The GI50 was 45 µM.

**Q.** And the TGI (UACC-257 melanoma)?
**A.** Its TGI is greater than 100 µM.

**Q.** What about the GI50 (UACC-62 melanoma) of the same compound?
**A.** Its GI50 is 52.1 µM.

**Q.** What about the TGI (UACC-62 melanoma) of the same compound?
**A.** The TGI was greater than 100 µM.
